Data on 1 compound can be found in patent US20220264883A1, “IMIDAZOTHIAZOLE COMPOUNDS AND METHODS FOR TREATING PLANT NEMATODE INFECTIONS” (The Governing Council of the University of Toronto, priority 2019, published 2022).

Values joined by “and” are separate entries in the source; they are usually repeats but may differ in a detail not shown here. Equal values may be shown once.

By viability is commonly meant the share of living cells, or the viability signal relative to a control. As a reminder, the minimal effective concentration is the lowest level tested that produced the effect sought. A lower minimal effective concentration goes with greater potency.

Data set [1] deals with C. elegans. Put plainly: C. elegans viability at a single concentration (Table 3). Type of data set: in vivo. The settings on record: Caenorhabditis elegans; 50 μM (compound If). Here is the method:
(§1) Forty microliters of an HB101 bacterial suspension in liquid NGM (see above) was added to each well of a 96-well flat-bottom culture plate, after which approximately 25 synchronized L1 worms, in 10 μl of M9 buffer (see ref. 59 for the recipe), were added to each well. The synchronized L1 worms were obtained from an embryo preparation performed the previous day (see ref. 59 for the protocol). For the L1 assays, 0.5 μl of chemical solution (or DMSO alone) was immediately added to the wells using a multichannel pipette, the final DMSO concentration is 1% (v/v). The worms were incubated for 3 days at 20° C. and the number of viable animals was counted. […] Although the counts were performed after 3 days of incubation in the chemical, it was noted that the L1s were dead within 24 hours of the addition of the chemicals. For the L2/L3 assays, the worms were incubated in the absence of chemical for 1 day at 20° C. until they reached the L2/L3 stage, at which point chemical was added as described above. The worms were then allowed to incubate for 2 days at 20° C. and the number of viable animals was counted as described for the L1 assay. For the L4 assays, the worms were incubated for 2 days at 20° C. before the addition of chemicals. The L4-stage worms were then incubated in chemical for an additional day before quantifying the number of viable animals. The adult assays were performed the same way as the L4 assays, however HT115 E. coli carrying the empty dsRNA expressing vector L4440 was used in place of HB101 and the worms were cultured at 25° C. as opposed to 20° C. for the entirety of the experiment. The HT115 suspension was made by concentrating a bacterial culture, with an OD600 of ˜ 0.8, five-fold with liquid NGM containing 1 mM IPTG and 100 μg/ml carbenicillin. The HT115 cells were induced with 1 mM IPTG for one hour before concentrating with NGM.
(§2) The ability of exemplary compounds of the application to kill C. elegans at 100 μM (except for compound If which was tested at 50 μM) and to affect the mobility of M. chitwoodi at 45 μM was tested as described above for M. incognita infective juveniles. Percent mobility was measured after 2 days of chronic exposure to test compounds (Table 3).

In data set [2] the test system is M. chitwoodi. The data set is described as follows: Root-knot nematode M. chitwoodi mobility (Table 3). Type of data set: in vivo, Meloidogyne chitwoodi. The settings on record: 45 μM, 2 days of chronic exposure. The protocol: (§3) M. incognita (Kofoid & White) Chitwood Race 1 (originally isolated in Maryland) was used for all experiments, and was maintained on pepper (Capsicum annuum L.) cv. PA-136 in a greenhouse as previously described^64. Infective J2 juveniles were collected as described in ref.65. The microwell dose-response experiments were carried out similarly to previously described protocols^64, 66. In brief, 100 J2s, in 10 μL of deionized water, were added to the wells of 96-well polystyrene plates, after which 190 μL of deionized water containing dissolved chemical, or DMSO alone, was added to each well. The chemicals were tested at 45 μM, and the final concentration of DMSO in each well was 0.5% (v/v). The wells were covered with a plastic adhesive strip, and the lids of the plates were sealed with parafilm. The plates were incubated at 25° C. The mobile fraction of worms was quantified by counting the number of mobile and immobile worms after 2 days of incubation, and then dividing the number of mobile worms by the total number of worms in the well. Three technical replicates were performed for each treatment, and an average value for the mobile fraction of worms was calculated across the three replicates. The percent effectiveness at inhibiting nematode movement was calculated by dividing the average value for the chemical treatment by the average value for the DMSO control, then subtracting this value from 1, and then multiplying by 100.
M. chitwoodi race 1 (the strain commonly found in the pacific northwest of the United States) was used for all experiments, and was maintained on tomato plants (Solanum lycopersicum ‘Rutgers’) as previously described^73. The M. chitwoodi in vitro assays were performed identically to the M. incognita in vitro assays (see above).
as §2

For data set [3], the system named is C. elegans. The data set is described as follows: C. elegans minimum lethal concentration dose-response. The settings on record: Caenorhabditis elegans, C. elegans viability. Type of data set: in vivo, Caenorhabditis elegans. Here is the method:
as §1
Compounds Ia to Im, dose-response assays were performed with C. elegans. 8 of the compounds killed C. elegans with minimum lethal concentrations less than or equal to 100 μM (Table 6). Compounds Ia, Ic, and Ij were the most potently lethal nematicides in this assay, having minimum lethal concentrations of 6.25 μM and below. The positive control nematicide tioxazafen killed nematodes at 3.13 μM and above.

The next data set deals with M. incognita J2 larvae. Put plainly: Meloidogyne incognita in vitro assays (J2 movement). In kind it is in vivo. The settings on record: 45 μM, 2 days, relative to DMSO control. Here is the method:
as §3

Data set [4] has as its system M. chitwoodi. The data set is described as follows: Meloidogyne chitwoodi infectivity assays (tomato roots in soil). Type of data set: in vivo. The settings on record: 45 μM in soil, 8 weeks, egg counts relative to DMSO control. Here is the method: An M. incognita population originally collected from grape (Vitis vinifera) in Parlier, Calif., was used for all experiments, and they were maintained on tomato plants (Solanum lycopersicum ‘Rutgers’) as previously described^73. Infective J2 juveniles were collected as described in^73. For the infectivity assays, 90 grams of soil (1:1 sand:loam mix) was added to each cell of several 6-cell plastic garden packs. The soil was drenched with 18 mL of deionized water containing dissolved chemical or DMSO alone. 2,500 infective J2 juveniles were then added to the soil in 2 mL of deionized water, for a total water volume of 20 mL. The final concentration of the chemicals in water was 45 μM. The DMSO concentration varied from 0.1% to 0.8% (v/v) depending on the stock concentration of the chemical. The highest DMSO concentration was used as the DMSO control. The J2s were incubated in the soil and chemical for 24 hours, after which two- to three-week old tomato seedlings were transplanted into the soil (one plant per cell). […] The number of eggs from each plant root was counted on a dissection microscope using a haemocytometer, and the number of eggs per milligram of root was calculated by dividing the total egg number by the mass of the dried root material. […] An average percent effectiveness value was then calculated across the two different batches carried out on different days. […]

For a further data set, the system named is tomato plants. The data set is described as follows: Root mass of tomato plants in the infectivity assays. In kind it is in vivo, Solanum lycopersicum. The settings on record: 45 μM. Here is the method: An M. incognita population originally collected from grape (Vitis vinifera) in Parlier, Calif., was used for all experiments, and they were maintained on tomato plants (Solanum lycopersicum ‘Rutgers’) as previously described^73. Infective J2 juveniles were collected as described in^73. For the infectivity assays, 90 grams of soil (1:1 sand:loam mix) was added to each cell of several 6-cell plastic garden packs. The soil was drenched with 18 mL of deionized water containing dissolved chemical or DMSO alone. 2,500 infective J2 juveniles were then added to the soil in 2 mL of deionized water, for a total water volume of 20 mL. The final concentration of the chemicals in water was 45 μM. The DMSO concentration varied from 0.1% to 0.8% (v/v) depending on the stock concentration of the chemical. The highest DMSO concentration was used as the DMSO control. The J2s were incubated in the soil and chemical for 24 hours, after which two- to three-week old tomato seedlings were transplanted into the soil (one plant per cell). Two replicates were performed for each chemical treatment, and four replicates were done for the DMSO controls. The whole experiment was replicated twice, in two different batches on two different days, for a total of four replicates for each chemical treatment, and eight replicates for the DMSO controls. Inoculated plants were grown for 8 weeks in a greenhouse, as described^73, under long-day conditions (16-h photoperiod) with 26/18° C. day/night temperatures. After 8 weeks, the plants were destructively harvested. The tops were removed and discarded, and roots were gently washed with water to remove adhering soil. Eggs were extracted by placing rinsed roots in 0.6% sodium hypochlorite and agitating at 300 rpm for 3 min. Roots were then rinsed over nested 250- and 25.4-μm sieves, with eggs collected from the latter and suspended in water. Roots were dried in a 65° C. oven for at least 24 hours, after which dry roots were weighed. The number of eggs from each plant root was counted on a dissection microscope using a haemocytometer, and the number of eggs per milligram of root was calculated by dividing the total egg number by the mass of the dried root material. An average was taken across the replicates performed on the same day, and then normalized to the DMSO control average. To calculate percent effectiveness at inhibiting reproduction, the normalized values were subtracted from 1, and then multiplied by 100. An average percent effectiveness value was then calculated across the two different batches carried out on different days.

As for `Cc1csc2nc(-c3ccc(Cl)cc3)cn12` [Compound If], the viability at 50 µM in the data set with C. elegans [1] stood at 19.8%. In the data set on M. chitwoodi [2], this compound had an RKN mobility of 0.6%. The minimal effective concentration in the data set on C. elegans [3] was 25 µM and 6.2 µg/mL. Further, in the data set with M. incognita J2 larvae, the “% effectiveness at reducing M. incognita movement” value came out at 3.5%. The “% effectiveness at inhibiting reproduction of M. chitwoodi” value in the data set on M. chitwoodi [4] is listed as 46.2%. Moreover, the “Normalized root mass (relative to DMSO control)” value in the data set on tomato plants was 1.3.
